According to patent US11932633B2, “KRas G12C inhibitors” (Mirati Therapeutics, Inc., priority 2018, dated 2024):

Key:
KRas G12C [1] = target: T1, KRas G12C (Homo sapiens, UniProt P01116, G12C); assay: Cellular inhibition of KRas G12C measured by Phospho-ERK in NCI-11358 cells; type: cell-based; conditions: NCI-11358 cells (ATCC CRL-5807), 3 hours; read-out: Inhibition (IC50, pERK (Thr202/Tyr204) signal normalized with GAPDH)
T1 construct: NCI-11358 cells (ATCC CRL-5807) express KRas G12C; host or cells: NCI-H358
Protocol: The cellular inhibition of KRAs G12C by exemplary compounds of the present invention was determined by measuring the amount of a downstream marker of KRas activity, phosphorylated ERK (“Phospho-ERK”).
NCI-11358 cells (ATCC CRL-5807) express KRas G12C and were grown in RPMI medium supplemented with 10% fetal bovine serum, penicillin/streptomycin and 10 mM HEPES. Cells were plated in poly-D-Lysine coated 96-well plates at a concentration of 50,000 cells/well and allowed to attach for 8-12 hours. Diluted compounds were then added at a final concentration of 0.5% DMSO. After 3 hours, the medium was removed, 150 μL of 4% formaldehyde was added and the plates were incubated for 20 minutes. The plates were washed with PBS, and permeabilized using 150 μL of ice cold 100% methanol for 10 minutes. Non-specific antibody binding to the plates was blocked using 100 μL Licor Blocking Buffer (Li-Cor Biotechnology, Lincoln NE) for 1 hour at room temperature. Positive control samples and samples lacking cells were parallel processed with test samples as standards.
The amount Phospho-ERK was determined using an antibody specific for the phosphorylated form of ERK and compared to the amount of GAPDH. Primary antibodies used for detection were added as follows: Phospho-ERK (Cell Signaling cs9101) diluted 1:500 and GAPDH (Millipore MAB374) diluted 1:5000 in Licor block+0.05% Tween 20. The plates were incubated for 2 hours at room temperature. The plates were washed with PBS+0.05% Tween 20.
Secondary antibodies used to visualize primary antibodies were added as follows: Anti-rabbit-680 diluted 1:1000 and Anti-mouse-800 diluted 1:1000 in Licor Block+0.05% Tween 20 and incubated for 1 hour at room temperature. The plates were washed with PBS+0.05% Tween 20. A 100 μL aliquot of PBS was added to each well and the plates were read on a LICOR AERIUS plate reader.
The pERK (Thr202/Tyr204) signal was normalized with the GAPDH signal and percent of DMSO control values were calculated. IC50 values were generated using a 4 parameter fit of the dose response curve. Key: “A”: ≤1 μM, “B”>1 μM and N.D.=not determined.

KRas G12C [2] = target: T2, KRas G12C (Homo sapiens, UniProt P01116, C118S/C51S/C80L/G12C); assay: KRas G12C Modification Assay (LCMS detection of covalent adduct); type: binding; conditions: 5 μM concentration for 3 hours
T2 construct: GDP-loaded K-Ras (1-169) G12C, C51S, C80L, C118S
Protocol: This Example illustrates that exemplary compounds of the present invention covalently bind to KRas G12C using a LCMS assay to detect a covalent adduct of the exemplary compound and KRAS G12C.
The protein concentration of GDP-loaded K-Ras (1-169) G12C, C51S, C80L, C118S and GTP-loaded K-Ras (1-169) G12C, C51S, C80L, C118S, Q61H was adjusted to 2 μM in K-Ras Assay Buffer (25 mM HEPES, 150 mM NaCl, 5 mM MgCl2, and 10 mM Octyl β-glucopyranoside at pH 7.5). A 10 μL aliquot of each protein solution was transferred to a 384 well microtiter plate. Initial compound stocks were generated at fifty times their desired final assay concentration in DMSO.
Exemplary compounds of formula (I) were diluted 25-fold into K-Ras Assay Buffer to a final of two times their final concentration. A 10 μL aliquot of each diluted compound solution was added to each of the protein solutions in the microtiter plate to initiate reaction. Typical final compound concentrations were 3.0, 5.0 and 25.0 μM. At each time point, the reactions were quenched with 20 μL of a 25 mM acetic acid solution. Usual assay endpoints were 15, 180 and 1440 minutes. Once all reactions were quenched, the plates were heat sealed and the samples were injected into a LC/MS system for data acquisition.
Data collection took place on an Agilent 6520 Q-TOF Accurate Mass Spectrometer. Samples were injected in their liquid phase onto a C-3 reverse phase column to remove assay buffer and prepare the samples for mass spectrometer. The proteins were eluted from the column using an acetonitrile gradient and fed directly into the mass analyzer. Initial raw data analysis took place in Agilent MassHunter software immediately post data acquisition.
Raw data analysis of the intact protein was exclusively a deconvolution of the multiple charge states of each protein in solution using a maximum entropy deconvolution provided in Mass Hunter. To minimize complexity, only the data over limited mass ranges were considered for analysis, with a minimum of one Dalton mass step intervals. The heights of all masses identified during raw data analysis were exported to be further analyzed in Spotfire® data analysis software.
Final data analysis was a multistep process in the Spotfire® data analysis software package. Briefly, each protein mass was calculated as a percent of the total signal of that sample, that percentage was normalized to the percentage of signal of the protein in the absence of reactive compounds. Those normalized signals were reported as normalized percent of control (POC). […] Key: N.D. is not determined.

| Structure (SMILES) | IC50 (KRas G12C [1]) [nM] | POC (normalized percent of control, covalent modification of KRas G12C) (KRas G12C [2]) |
| --- | --- | --- |
| C=CC(=O)N1CC(CN2C(=O)[C@@H](CCN(C)C)Oc3cc(-c4cc(O)cc5ccccc45)c(Cl)cc32)C1 [Example 18, (R)-4-((1-acryloylazetidin-3-yl)methyl)-6-chloro-2-(2-(dimethylamino)ethyl)-7-(3-hydroxynaphthalen-1-yl)-2H-benzo[b][1,4]oxazin-3(4H)-one] | ≤ 1000 | 91% of control |
| C=CC(=O)N1CC(CN2C(=O)COc3cc(-c4cc(O)cc5ccccc45)c(C)cc32)C1 [Example 19, 4-((1-acryloylazetidin-3-yl)methyl)-7-(3-hydroxynaphthalen-1-yl)-6-methyl-2H-benzo[b][1,4]oxazin-3(4H)-one] | > 1000 | 99% of control |
| C=CC(=O)N1CC(CN2C(=O)C(CC3CCN(C)CC3)Oc3cc(-c4cc(O)cc5ccccc45)c(Cl)cc32)C1 (centres unmarked) [Example 20, 4-((1-acryloylazetidin-3-yl)methyl)-6-chloro-7-(3-hydroxynaphthalen-1-yl)-2-((1-methylpiperidin-4-yl)methyl)-2H-benzo[b][1,4]oxazin-3(4H)-one] | ≤ 1000 | 99% of control |
| C=CC(=O)N1CC(CN2C(=O)COc3cc(-c4cccc5ccccc45)c(Cl)cc32)C1 [Example 21, 4-((1-acryloylazetidin-3-yl)methyl)-6-chloro-7-(naphthalen-1-yl)-2H-benzo[b][1,4]oxazin-3(4H)-one] | > 1000 | 90% of control |
| C=CC(=O)N1CC(CN2C(=O)C(CCCN3CCCC3)Oc3cc(-c4cc(O)cc5ccccc45)c(Cl)cc32)C1 (centres unmarked) [Example 22, 4-((1-acryloylazetidin-3-yl)methyl)-6-chloro-7-(3-hydroxynaphthalen-1-yl)-2-(3-(pyrrolidin-1-yl)propyl)-2H-benzo[b][1,4]oxazin-3(4H)-one 2,2,2-trifluoroacetate] | ≤ 1000 | 97% of control |
| C=CC(=O)N1CC(C(C)N2C(=O)COc3cc(-c4cc(O)cc5ccccc45)c(Cl)cc32)C1 (centres unmarked) [Example 23, 4-(1-(1-acryloylazetidin-3-yl)ethyl)-6-chloro-7-(3-hydroxynaphthalen-1-yl)-2H-benzo[b][1,4]oxazin-3(4H)-one] | > 1000 | 34% of control |
| C=CC(=O)N1CC(CN2C(=O)C(CN3CCCC3)Oc3cc(-c4cccc5ccccc45)c(Cl)cc32)C1 (centres unmarked) [Example 24, 4-((1-acryloylazetidin-3-yl)methyl)-6-chloro-7-(naphthalen-1-yl)-2-(pyrrolidin-1-ylmethyl)-2H-benzo[b][1,4]oxazin-3(4H)-one 2,2,2-trifluoroacetate] | > 1000 | 86% of control |
| C=CC(=O)N1CC(CN2C(=O)C(CCCN3CCOCC3)Oc3cc(-c4cc(O)cc5ccccc45)c(Cl)cc32)C1 (centres unmarked) [Example 25, 4-((1-acryloylazetidin-3-yl)methyl)-6-chloro-7-(3-hydroxynaphthalen-1-yl)-2-(3-morpholinopropyl)-2H-benzo[b][1,4]oxazin-3(4H)-one 2,2,2-trifluoroacetate] | ≤ 1000 | 93% of control |
| C=CC(=O)N1CC(CN2C(=O)[C@H](CCN(C)C)Oc3cc(-c4cc(O)cc5ccccc45)c(Cl)cc32)C1 [Example 26, (S)-4-((1-acryloylazetidin-3-yl)methyl)-6-chloro-2-(2-(dimethylamino)ethyl)-7-(3-hydroxynaphthalen-1-yl)-2H-benzo[b][1,4]oxazin-3(4H)-one] | ≤ 1000 | 90% of control |
| C=CC(=O)N1CC(CN2C(=O)C(CN(C)C)Oc3cc(-c4cc(O)cc5ccccc45)c(Cl)cc32)C1 (centres unmarked) [Example 27, 4-((1-acryloylazetidin-3-yl)methyl)-6-chloro-2-((dimethylamino)methyl)-7-(3-hydroxynaphthalen-1-yl)-2H-benzo[b][1,4]oxazin-3(4H)-one] | ≤ 1000 | 94% of control |
| C=CC(=O)N1CC(CN2C(=O)C(CN3CC[C@@H](OC)C3)Oc3cc(-c4cc(O)cc5ccccc45)c(Cl)cc32)C1 (stereo partly drawn) [Example 28, 4-((1-acryloylazetidin-3-yl)methyl)-6-chloro-7-(3-hydroxynaphthalen-1-yl)-2-(((R)-3-methoxypyrrolidin-1-yl)methyl)-2H-benzo[b][1,4]oxazin-3(4H)-one] | ≤ 1000 | 93% of control |
| C=CC(=O)N1CC(CN2C(=O)COc3cc(-c4onc5ccccc45)c(Cl)cc32)C1 [Example 29, 4-((1-acryloylazetidin-3-yl)methyl)-7-(benzo[c]isoxazol-3-yl)-6-chloro-2H-benzo[b][1,4]oxazin-3(4H)-one] | > 1000 | 25% of control |
| C=CC(=O)N1CC(CN2C(=O)C(CN3CC[C@H](OC)C3)Oc3cc(-c4cc(O)cc5ccccc45)c(Cl)cc32)C1 (stereo partly drawn) [Example 30, 4-((1-acryloylazetidin-3-yl)methyl)-6-chloro-7-(3-hydroxynaphthalen-1-yl)-2-(((S)-3-methoxypyrrolidin-1-yl)methyl)-2H-benzo[b][1,4]oxazin-3(4H)-one] | ≤ 1000 | 93% of control |
| C=CC(=O)N1CC(CN2C(=O)COc3cc(-c4cc(O)cc5ccccc45)c(Br)cc32)C1 [Example 31, 4-((1-acryloylazetidin-3-yl)methyl)-6-bromo-7-(3-hydroxynaphthalen-1-yl)-2H-benzo[b][1,4]oxazin-3(4H)-one] | ≤ 1000 | 88% of control |
| C=CC(=O)N1CC(CN2C(=O)COc3cc(-c4cc(O)cc5ccccc45)c(C#N)cc32)C1 [Example 32, 4-((1-acryloylazetidin-3-yl)methyl)-7-(3-hydroxynaphthalen-1-yl)-3-oxo-3,4-dihydro-2H-benzo[b][1,4]oxazine-6-carbonitrile] | > 1000 | 81% of control |
| C=CC(=O)N1CC(CN2C(=O)[C@H](CCN(C)C)Oc3cc(-c4cccc5ccccc45)c(Cl)cc32)C1 [Example 33, (S)-4-((1-acryloylazetidin-3-yl)methyl)-6-chloro-2-(2-(dimethylamino)ethyl)-7-(naphthalen-1-yl)-2H-benzo[b][1,4]oxazin-3(4H)-one] | > 1000 | 32% of control |
